Patent publication US12054494B2, “Compound with anticancer activity” (KYOWA KIRIN CO., LTD., priority 2018, dated 2024)

tested on: SU-DHL-4 cells; test: Inhibitory effect on cell viability (Cell Counting Kit-8); format: cell-based; conditions: Homo sapiens, 72 hours culture with test compound, concentration showing 90% inhibition rate of cell viability
Outline: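 IC90 corresponds to 90% loss of viability, measured as CCK-8 absorbance at 450 nm (2-3 h colour development). Compounds in 9 dilutions (0.1% DMSO) were applied for 72 h at 37° C to SU-DHL-4 lymphoma cells seeded at 2000/well in RPMI1640/10% FBS after 18-25 h preculture.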

IC90 [nM]	SMILES
5.08	CCC(=O)N1c2ccccc2[C@H](Nc2ccc(CN3CC(C(=O)Nc4ccc(N[C@@H]5C[C@H](C)N(C(=O)CC)c6ccccc65)cc4)C3)cc2)C[C@@H]1C [Compound 6d, 1-(4-(((2S,4R)-2-Methyl-1-propionyl-1,2,3,4-tetrahydroquinolin-4-yl)amino)benzyl)-N-(4-(((2S,4R)-2-methyl-1-propionyl-1,2,3,4-tetrahydroquinolin-4-yl)amino)phenyl)azetidine-3-carboxamide]
26.6	CCC(=O)N1c2ccccc2[C@H](Nc2ccc(NC(=O)[C@H](C)NC(=O)c3ccc(N[C@@H]4C[C@H](C)N(C(=O)CC)c5ccccc54)cc3)cc2)C[C@@H]1C (relative stereo) [Compound 2d, 4-{[(2S,4R)-2-Methyl-1-propionyl-1,2,3,4-tetrahydroquinolin-4-yl]amino}-N-{(S)-1-[(4-{[(2S*,4R*)-2-methyl-1-propionyl-1,2,3,4-tetrahydroquinolin-4-yl]amino}phenyl)amino]-1-oxopropan-2-yl}benzamide]
31.1	CCC(=O)N1c2ccccc2[C@H](NCCCCCCCCC(=O)Nc2ccc(N[C@@H]3C[C@H](C)N(C(=O)CC)c4ccccc43)cc2)C[C@@H]1C (relative stereo) [Compound 12g, 9-(((2S*,4R*)-2-Methyl-1-propionyl-1,2,3,4-tetrahydroquinolin-4-yl)amino)-N-(4-(((2S,4R)-2-methyl-1-propionyl-1,2,3,4-tetrahydroquinolin-4-yl)amino)phenyl)nonanamide]
0.16	CCC(=O)N1c2ccccc2[C@H](Nc2ccc(NC(=O)COCC(=O)Nc3ccc(C4=NCc5nnc(C)n5-c5sc(C)c(C)c54)cc3)cc2)C[C@@H]1C [Compound 14d, N-(4-(((2S,4R)-2-Methyl-1-propionyl-1,2,3,4-tetrahydroquinolin-4-yl)amino)phenyl)-2-(2-oxo-2-((4-(2,3,9-trimethyl-6H-thieno[3,2-f][1,2,4]triazolo[4,3-a][1,4]diazepin-4-yl)phenyl)amino)ethoxy)acetamide]
9.16	CCC(=O)N1c2ccc(F)cc2[C@H](Nc2ccc(C(=O)NCCNC(=O)c3ccc(N[C@@H]4C[C@H](C)N(C(=O)CC)c5ccc(F)cc54)cc3)cc2)C[C@@H]1C [Compound 10r, N,N′-(Ethane-1,2-diyl)bis(4-(((2S,4R)-6-fluoro-2-methyl-1-propionyl-1,2,3,4-tetrahydroquinolin-4-yl)amino)benzamide)]
0.04	CCC(=O)N1c2ccccc2[C@H](Nc2ccc(C(=O)NCC(=O)CNC(=O)c3ccc(N[C@@H]4C[C@H](C)N(C(=O)CC)c5ccccc54)cc3)cc2)C[C@@H]1C [Compound 1l, N,N′-(2-Oxopropane-1,3-diyl)bis(4-{[(2S,4R)-2-methyl-1-propionyl-1,2,3,4-tetrahydroquinolin-4-yl]amino}benzamide)]
0.16	CCC(=O)N1c2ccccc2[C@H](Nc2ccc(-c3cnn(CCNC(=O)c4ccc(Cn5c(C(=O)OCCN(C)C)cc6c5CCCC6=O)cc4)c3)cc2)C[C@@H]1C [Compound 15d, 2-(Dimethylamino)ethyl 1-(4-((2-(4-(4-(((2S,4R)-2-methyl-1-propionyl-1,2,3,4-tetrahydroquinolin-4-yl)amino)phenyl)-1H-pyrazol-1-yl)ethyl)carbamoyl)benzyl)-4-oxo-4,5,6,7-tetrahydro-1H-indole-2-carboxylate]
47.5	CCC(=O)N1c2ccccc2[C@H](NCC2CCN(C(=O)N3CC(C(=O)Nc4ccc(N[C@@H]5C[C@H](C)N(C(=O)CC)c6ccccc65)cc4)C3)CC2)C[C@@H]1C (relative stereo) [Compound 10p, 1-(4-((((2S*,4R*)-2-Methyl-1-propionyl-1,2,3,4-tetrahydroquinolin-4-yl)amino)methyl)piperidine-1-carbonyl)-N-(4-(((2S,4R)-2-methyl-1-propionyl-1,2,3,4-tetrahydroquinolin-4-yl)amino)phenyl)azetidine-3-carboxamide]
0.11	CCC(=O)N1c2ccccc2[C@H](Nc2ccc(Cc3cnc4n3CCN(C(=O)c3ccc(N[C@@H]5C[C@H](C)N(C(=O)CC)c6ccccc65)cc3)C4)cc2)C[C@@H]1C [Compound 5q, 1-((2S,4R)-2-Methyl-4-((4-((7-(4-(((2S,4R)-2-methyl-1-propionyl-1,2,3,4-tetrahydroquinolin-4-yl)amino)benzoyl)-5,6,7,8-tetrahydroimidazo[1,2-a]pyrazin-3-yl)methyl)phenyl)amino)-3,4-dihydroquinolin-1(2H)-yl)propan-1-one]
0.26	Cc1sc2c(c1C)C(c1ccc(NC(=O)C#CCNC(=O)c3ccc(C4=NCc5nnc(C)n5-c5sc(C)c(C)c54)cc3)cc1)=NCc1nnc(C)n1-2 [Compound 14e, N-(4-Oxo-4-((4-(2,3,9-trimethyl-6H-thieno[3,2-f][1,2,4]triazolo[4,3-a][1,4]diazepin-4-yl)phenyl)amino)but-2-yn-1-yl)-4-(2,3,9-trimethyl-6H-thieno[3,2-f][1,2,4]triazolo[4,3-a][1,4]diazepin-4-yl)benzamide]
0.34	CCC(=O)N1c2ccccc2[C@H](Nc2ccc(NC(=O)NCC(=O)Nc3ccc(C4=NCc5nnc(C)n5-c5sc(C)c(C)c54)cc3)cc2)C[C@@H]1C [Compound 14h, 2-(3-(4-(((2S,4R)-2-Methyl-1-propionyl-1,2,3,4-tetrahydroquinolin-4-yl)amino)phenyl)ureido)-N-(4-(2,3,9-trimethyl-6H-thieno[3,2-f][1,2,4]triazolo[4,3-a][1,4]diazepin-4-yl)phenyl)acetamide]
0.14	CCC(=O)N1c2ccccc2[C@H](Nc2ccc(NC(=O)COCC(=O)Nc3ccc(N[C@@H]4C[C@H](C)N(C(=O)CC)c5ccccc54)cc3)cc2)C[C@@H]1C [Compound 5o, 2,2′-Oxybis(N-(4-(((2S,4R)-2-methyl-1-propionyl-1,2,3,4-tetrahydroquinolin-4-yl)amino)phenyl)acetamide)]
0.13	CCC(=O)N1c2ccccc2[C@H](Nc2ccc(NC(=O)Cn3cc(-c4ccc(N[C@@H]5C[C@H](C)N(C(=O)CC)c6ccccc65)cc4)cn3)cc2)C[C@@H]1C (relative stereo) [Compound 6n, N-(4-(((2S*,4R*)-2-Methyl-1-propionyl-1,2,3,4-tetrahydroquinolin-4-yl)amino)phenyl)-2-(4-(4-(((2S,4R)-2-methyl-1-propionyl-1,2,3,4-tetrahydroquinolin-4-yl)amino)phenyl)-1H-pyrazol-1-yl)acetamide]
3.37	CCC(=O)N1c2ccccc2[C@H](Nc2ccc(NC(=O)CCNC(=O)c3ccc(C4=N[C@@H](CC(=O)OC(C)(C)C)c5nnc(C)n5-c5sc(C)c(C)c54)cc3)cc2)C[C@@H]1C (relative stereo) [Compound 13i, tert-Butyl 2-((S)-2,3,9-trimethyl-4-(4-((3-((4-(((2S*,4R*)-2-methyl-1-propionyl-1,2,3,4-tetrahydroquinolin-4-yl)amino)phenyl)amino)-3-oxopropyl)carbamoyl)phenyl)-6H-thieno[3,2-f][1,2,4]triazolo[4,3-a][1,4]diazepin-6-yl)acetate]
21.7	CCC(=O)N1c2ccccc2[C@H](Nc2ccc(NC(=O)CCCC(=O)Nc3ccc(N[C@@H]4C[C@H](C)N(C(=O)CC)c5cc(CCCN)ccc54)cc3)cc2)C[C@@H]1C (relative stereo) [Compound 10s, N^1-(4-(((2S*,4R*)-7-(3-Aminopropyl)-2-methyl-1-propionyl-1,2,3,4-tetrahydroquinolin-4-yl)amino)phenyl)-N^5-(4-(((2S,4R)-2-methyl-1-propionyl-1,2,3,4-tetrahydroquinolin-4-yl)amino)phenyl)glutaramide]
